According to US20260092054A1, “FUSED RING COMPOUND AND PHARMACEUTICAL CONTAINING SAME” (KAKEN PHARMACEUTICAL CO., LTD., priority 2022, published 2026):

Experiments:
human STAT6 = assay: Human STAT6 dependent reporter activity (IL-4 stimulated STAT6 reporter assay using STAT6-HEK293 cells); format: cell-based; details: IL-4 stimulation, luciferase activity; for inhibition at 0.1 µM / inhibition at 1 µM: Homo sapiens, read-out: Inhibition rate (%)
human STAT6/pIL-4Rα = target: T1, human STAT6/pIL-4Rα (Homo sapiens, UniProt P42226); assay: Binding inhibitory activity between human STAT6/pIL-4Rα by fluorescence polarization method; details: rhSTAT6 (123-658) / FAM-pIL-4Rα peptide
T1 construct: histidine tag
T1 sequence (P42226 123-658): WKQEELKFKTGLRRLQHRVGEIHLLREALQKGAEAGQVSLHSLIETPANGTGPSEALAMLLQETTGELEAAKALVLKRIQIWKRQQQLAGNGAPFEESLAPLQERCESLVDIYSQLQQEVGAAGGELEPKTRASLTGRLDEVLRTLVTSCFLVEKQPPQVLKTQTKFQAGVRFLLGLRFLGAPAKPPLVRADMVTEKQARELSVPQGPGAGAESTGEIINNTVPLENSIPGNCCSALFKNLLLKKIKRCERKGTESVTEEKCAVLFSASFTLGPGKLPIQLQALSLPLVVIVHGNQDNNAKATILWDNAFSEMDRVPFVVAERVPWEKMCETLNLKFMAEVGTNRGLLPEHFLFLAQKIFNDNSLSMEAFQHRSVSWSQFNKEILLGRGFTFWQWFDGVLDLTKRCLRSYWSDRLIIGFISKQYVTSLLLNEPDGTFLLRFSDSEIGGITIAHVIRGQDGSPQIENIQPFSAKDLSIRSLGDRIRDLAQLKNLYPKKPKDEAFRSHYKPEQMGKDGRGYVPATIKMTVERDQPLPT
How it was run: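 His-tagged human STAT6 (residues 123–658, E. coli-expressed) was preincubated with compound for 30 min at RT in the dark, in buffer e.g. 50 mM NaCl, 10 mM HEPES pH 7.0, 1 mM DTT, 1 mM EDTA, 0.01% NP-40. FAM-pIL-4Rα peptide was then added for 30 min. Fluorescence polarisation was read at 485/535 nm, with IC50 interpolated linearly between two points flanking 50%.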

IC50 (human STAT6/pIL-4Rα) | SMILES | inhibition at 0.1 µM (human STAT6; compound 0.1 μmol/L) | inhibition at 1 µM (human STAT6; compound 1 μmol/L) | Inhibition rate (%) (human STAT6; compound 0.1 μmol/L) | Inhibition rate (%) (human STAT6; compound 1 μmol/L)
250 nM | COCCn1c(-c2ccc(-n3c(C)nn(C)c3=O)cc2)cc2cc(C(F)(F)F)nc(C(=O)Nc3cccc(C(N)=O)c3)c21 [Ex. 91] | 67% | 99% | – | –
230 nM | Cc1nn(C)c(=O)n1-c1ccc(-c2cc3cc(C(F)(F)F)nc(C(=O)Nc4ccc(F)c(C(N)=O)c4)c3n2C)cc1 [Ex. 92] | 74% | 99% | – | –
280 nM | Cc1nn(C)c(=O)n1-c1ccc(-c2cc3cc(C(F)(F)F)nc(C(=O)Nc4cccc(C(N)=O)c4)c3n2C)cc1 [Ex. 93] | 67% | 96% | – | –
310 nM | Cc1nn(C)c(=O)n1-c1ccc(-c2cc3cc(C(F)(F)F)nc(C(=O)Nc4cccc(C(N)=O)c4F)c3n2C)cc1 [Ex. 94] | 79% | – | – | –
280 nM | COCCn1c(-c2ccc(-n3c(C)nn(C)c3=O)cc2)cc2cc(C(F)(F)F)cc(C(=O)Nc3cccc(N)n3)c21 [Ex. 95] | 74% | – | – | –
290 nM | COCCn1c(-c2ccc(-n3c(C)nn(C)c3=O)cc2)cc2cc(C(F)(F)F)nc(C(=O)Nc3cccc(C(N)=O)c3F)c21 [Ex. 97] | 89% | – | – | –
310 nM | CCn1c(-c2ccc(-n3c(C)nn(C)c3=O)cc2F)cc2ccnc(C(=O)Nc3cccc(C(N)=O)c3F)c21 [Ex. 98] | 60% | 100% | – | –
380 nM | CCn1c(-c2ccc(-n3cnn(C)c3=O)cc2)cc2ccnc(C(=O)Nc3cccc(C(N)=O)c3F)c21 [Ex. 99] | 51% | 95% | – | –
300 nM | COCCn1c(-c2ccc(-n3c(C)nn(C)c3=O)cc2)cc2cc(C(F)(F)F)cc(C(=O)Nc3cccc(COC)n3)c21 [Ex. 100] | 85% | – | – | –
2820 nM | CCn1c(-c2ccc(-n3c(C)nn(C)c3=O)cc2)cc2cc(C(F)(F)F)cc(C(=O)Nc3cccc(OC)n3)c21 [Ex. 102] | – | 60% | – | –
290 nM | Cc1nn(C)c(=O)n1-c1ccc(-c2cc3ccnc(C(=O)Nc4cccc(C(N)=O)c4)c3n2C)cc1 [Ex. 107] | 67% | – | – | –
460 nM | Cc1nn(C)c(=O)n1-c1ccc(-c2cc3ccnc(C(=O)Nc4ccc(F)c(C(N)=O)c4)c3n2C)cc1 [Ex. 108] | 52% | 97% | – | –
430 nM | Cc1nn(C)c(=O)n1-c1ccc(-c2cc3ccnc(C(=O)Nc4cccc(C(N)=O)c4F)c3n2C)cc1 [Ex. 109] | 62% | – | – | –
430 nM | CCn1c(-c2ccc(-n3c(C)nn(C)c3=O)cc2)cc2ncnc(C(=O)Nc3ccc(F)c(C(N)=O)c3)c21 [Ex. 110] | 65% | – | – | –
550 nM | Cc1nn(C)c(=O)n1-c1ccc(-c2cc3ccnc(C(=O)Nc4ccc(F)c(C(N)=O)c4)c3n2CCC(F)F)cc1 [Ex. 111] | 25% | 80% | – | –
400 nM | Cc1nn(C)c(=O)n1-c1ccc(-c2cc3ccnc(C(=O)Nc4cccc(C(N)=O)c4F)c3n2CCC(F)F)cc1 [Ex. 112] | 38% | 93% | – | –
440 nM | Cc1nn(C)c(=O)n1-c1ccc(-c2cc3ccnc(C(=O)Nc4cccc(C(N)=O)c4F)c3n2CCOCC(F)(F)F)cc1 [Ex. 113] | 44% | 96% | – | –
330 nM | Cc1nn(C)c(=O)n1-c1ccc(-c2cc3ccnc(C(=O)Nc4ccc(F)c(C(N)=O)c4)c3n2CCOCC(F)(F)F)cc1 [Ex. 114] | 57% | 97% | – | –
430 nM | COCCn1c(-c2ccc(-n3c(C)nn(C)c3=O)cc2)cc2cc(C(F)(F)F)cc(C(=O)Nc3cccc(CO)c3)c21 [Ex. 115] | 54% | 95% | – | –
230 nM | CCn1c(-c2ccc(-n3c(C)nn(C)c3=O)cc2)cc2cc(C(F)(F)F)cc(C(=O)Nc3cccc(-c4ncc[nH]4)c3)c21 [Ex. 118] | 95% | – | – | –
380 nM | Cc1nn(C)c(=O)n1-c1ccc(-c2cc3cccc(C(=O)Nc4cccc(C(N)=O)c4F)c3n2CC2CC2)cc1 [Ex. 119] | 95% | – | – | –
500 nM | Cc1nn(C)c(=O)n1-c1ccc(-c2cc3ccnc(C(=O)Nc4cccc(C(N)=O)c4)c3n2CC2CCC2)cc1 [Ex. 120] | 74% | – | – | –

IC50 (human STAT6/pIL-4Rα) | SMILES | inhibition at 0.1 µM (human STAT6; compound 0.1 μmol/L) | inhibition at 1 µM (human STAT6; compound 1 μmol/L) | Inhibition rate (%) (human STAT6; compound 0.1 μmol/L) | Inhibition rate (%) (human STAT6; compound 1 μmol/L)
420 nM | Cc1nn(C)c(=O)n1-c1ccc(-c2cc3ccnc(C(=O)Nc4ccc(F)c(C(N)=O)c4)c3n2CC2CCC2)cc1 [Ex. 121] | 40% | 97% | – | –
690 nM | Cc1nn(C)c(=O)n1-c1ccc(-c2cc3ccnc(C(=O)Nc4cccc(C(N)=O)c4F)c3n2CC2CCC2)cc1 [Ex. 122] | 23% | 89% | – | –
500 nM | Cc1nn(C)c(=O)n1-c1ccc(-c2cc3ccnc(C(=O)Nc4cccc(C(N)=O)c4F)c3n2CC2(C#N)CC2)cc1 [Ex. 123] | 40% | 96% | – | –
450 nM | Cc1nn(C)c(=O)n1-c1ccc(-c2cc3cc(C(F)(F)F)cc(C(=O)Nc4ccc(F)c(C(N)=O)c4)c3n2CC2(C#N)CC2)cc1 [Ex. 124] | 57% | 99% | – | –
260 nM | Cc1nn(C)c(=O)n1-c1ccc(-c2cc3cc(C(F)(F)F)cc(C(=O)Nc4cccc(C(N)=O)c4F)c3n2CC2(C#N)CC2)cc1 [Ex. 125] | 52% | 99% | – | –
240 nM | Cc1nn(C)c(=O)n1-c1ccc(-c2cc3cc(C(F)(F)F)cc(C(=O)Nc4cccc(C(N)=O)c4)c3n2CC2(C#N)CC2)cc1 [Ex. 126] | 62% | – | – | –
250 nM | CCn1c(-c2ccc(-n3c(C)nn(C)c3=O)nn2)cc2cc(C(F)(F)F)cc(C(=O)Nc3cccc(C(N)=O)c3F)c21 [Ex. 127] | 38% | 99% | – | –
590 nM | CCn1c(-c2ccc(N3C(=O)C(C)CC3C)cc2)cc2ccnc(C(=O)Nc3ccc(F)c(C(N)=O)c3)c21 (centres unmarked) [Ex. 129] | – | – | 8% | 75%
360 nM | CCn1c(-c2ccc(N3C(=O)C(C)CC3C)cc2)cc2ccnc(C(=O)Nc3ccc(F)c(C(N)=O)c3)c21 (centres unmarked) [Ex. 130] | – | – | 74% | 96%
510 nM | CCn1c(-c2ccc(N3C(=O)C(C)CC3C)cc2)cc2ccnc(C(=O)Nc3cccc(C(N)=O)c3)c21 (centres unmarked) [Ex. 131] | 56% | 92% | – | –
520 nM | COCCn1c(-c2ccc(N3C(=O)C(C)CC3C)cc2)cc2cc(C(F)(F)F)nc(C(=O)Nc3cccc(C(N)=O)c3)c21 (centres unmarked) [Ex. 132] | 70% | 96% | – | –
230 nM | COCCn1c(-c2ccc(N3C(=O)C(C)CC3C)cc2)cc2cc(C(F)(F)F)nc(C(=O)Nc3ccc(F)c(C(N)=O)c3)c21 (centres unmarked) [Ex. 133] | 80% | – | – | –
370 nM | CCn1c(-c2ccc(N3C(=O)C(C)CC3C)cc2)cc2cc(C(F)(F)F)nc(C(=O)Nc3cccc(C(N)=O)c3)c21 (centres unmarked) [Ex. 134] | 48% | 99% | – | –
530 nM | CCn1c(-c2ccc(N3C(=O)C(C)CC3C)cc2)cc2cc(C(F)(F)F)nc(C(=O)Nc3ccc(F)c(C(N)=O)c3)c21 (centres unmarked) [Ex. 135] | 85% | – | – | –
480 nM | COCCn1c(-c2ccc(N3C(=O)C(C)CC3C)cc2)cc2ccnc(C(=O)Nc3cccc(C(N)=O)c3)c21 (centres unmarked) [Ex. 136] | 61% | – | – | –
280 nM | COCCn1c(-c2ccc(N3C(=O)C(C)CC3C)cc2)cc2ccnc(C(=O)Nc3ccc(F)c(C(N)=O)c3)c21 (centres unmarked) [Ex. 137] | 62% | – | – | –
370 nM | COCCn1c(-c2ccc(-n3c(C)nn(C)c3=O)cc2)cc2cc(C(F)(F)F)cc(COc3cccc(C(N)=O)c3)c21 [Ex. 138] | 35% | 93% | – | –
1940 nM | COCCn1c(-c2ccc(-n3c(C)nn(C)c3=O)cc2)cc2cc(C(F)(F)F)cc(CNc3cccc(C(N)=O)c3)c21 [Ex. 139] | 8% | 69% | – | –
2720 nM | CCn1c(-c2ccc(-n3c(C)nn(C)c3=O)cc2)c(I)c2cncc(C(=O)Nc3ccc(F)c(C(N)=O)c3)c21 [Ex. 140] | 3% | 45% | – | –
300 nM | CCn1c(-c2ccc(-n3cnn(C)c3=O)cc2)c(Cl)c2cc(C(F)(F)F)cc(C(=O)Nc3ccc(F)c(C(N)=O)c3)c21 [Ex. 142] | 94% | 100% | – | –
390 nM | COCCn1c(-c2ccc(-n3c(C)nn(C)c3=O)cc2)c(Cl)c2cc(C(F)(F)F)cc(C(=O)Nc3ccc(F)c(C(N)=O)c3)c21 [Ex. 143] | 87% | 99% | – | –
